# Measured values reported in article PMC3479139, “Diverse Small Molecule Inhibitors of Human Apurinic/Apyrimidinic Endonuclease APE1 Identified from a Screen of a Large Public Collection” (PLoS ONE, 2012).
# Key:
# [1] = target: T1, E. coli Endo IV (Escherichia coli, UniProt P0A6C1); assay: E. coli Endo IV profiling counterscreen; type: biochemical; details: read-out: EndoIV IC50;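 note: selectivity counterscreen of candidate APE1 inhibitors against the bacterial endonuclease Endo IV, run in the same assay format as the primary APE1 high-throughput screen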
# T1 construct: made in house
# Description: In order to screen out nonselective compounds, such as non-specific DNA binders and inhibitors of related enzymes, we used a miniaturized ThO DNA displacement assay and a counterscreen against the bacterial endonuclease E. coli Endo IV, respectively, following the previously published protocols [21].
# To probe the selectivity of the candidate APE1 inhibitors, we tested them against E. coli EndoIV [36], employing the same assay as used in the HTS.
# [2] = tested on: HeLa cells; assay: MMS potentiation assay (CellTiter Glo viability); type: cell-based, human; set-up: key: N.A., no activity observed; P, positive; I, inconclusive; N.T., not tested; details: for MMS Assay: potentiation of the genotoxic effect of methylmethane sulfonate
# Description: HeLa cells were plated at 6000 cells/well in DMEM culture medium containing 10% FBS into white solid bottom 384-well cell culture plates. The plates were incubated at 37°C overnight for cell attachment, followed by media replacement. The fresh medium contained serial dilutions of compounds of interest in the presence (0.4 mM final) or absence of MMS. The plates were incubated for 24 h at 37°C. Cell viability was determined by luminescence detection after an addition of 15 µL of CellTiter Glo reagent (Promega, Madison, WI). Percent viability was calculated for each concentration of compound tested in duplicate by relating the corresponding luminescence to that of a negative DMSO vehicle control. MMS potentiation trends were defined as follows: negative (-), if cell viability in the compound-plus-MMS treatment was the same as that of the DMSO-plus-MMS control (overlapping dose-response curves); inconclusive (I), if the shift in the cell viability dose-response upon MMS inclusion relative to compound-alone was less than 30%; and positive (P), if the difference between the compound-plus-MMS and compound-alone curves was at least 30%, and maintained within at least a two-fold compound concentration span.
# To examine the biological prospects of the top compounds, we tested their ability to inhibit APE1 DNA repair activity by assessing enhancement of MMS toxicity in mammalian cells. MMS creates methylated-base damage to genomic DNA, which, when excised by an alkylpurine DNA glycosylase, results in a high number of cytotoxic AP sites. We compared the viability of HeLa cells exposed to a dilution series of inhibitor alone to a combination of a fixed MMS concentration with the same dilution series of inhibitor by using a standard CellTiter Glo luminescence assay. This technique measures the number of viable cells in culture based on quantitation of the ATP present, which signals the presence of metabolically active cells. The assay was further optimized for 384-well plates, allowing a high-throughput testing of multiple hits at multiple concentrations, a scope of investigation previously impossible due to the very low throughput of the traditionally applied colony formation assay.
# From the 223 compounds found positive in the gel-based APE1 assays, exclusion of the most promiscuous hits, that is, those that were both DNA binders and EndoIV-inhibitory, yielded a set of 170 compounds (Figure 3). This shortened group of hits was tested in the cell-based potentiation assay for their ability to dose-dependently enhance sensitivity of HeLa cells to the alkylating agent MMS.
# [3] = target: T2, APE1 (Homo sapiens, UniProt P27695); assay: Fluorescence polarization (FP) displacement assay of APE1 binding to AP-DNA probe; details: read-out: FP IC50;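 note: TAMRA 5′-labeled duplex DNA with THF abasic site (5 nM) and APE1 (20 nM), Mg2+-free buffer, 15 min at room temperature, inhibition seen as lowered polarization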
# T2 construct: made in house
# T2 sequence (P27695 whole entry): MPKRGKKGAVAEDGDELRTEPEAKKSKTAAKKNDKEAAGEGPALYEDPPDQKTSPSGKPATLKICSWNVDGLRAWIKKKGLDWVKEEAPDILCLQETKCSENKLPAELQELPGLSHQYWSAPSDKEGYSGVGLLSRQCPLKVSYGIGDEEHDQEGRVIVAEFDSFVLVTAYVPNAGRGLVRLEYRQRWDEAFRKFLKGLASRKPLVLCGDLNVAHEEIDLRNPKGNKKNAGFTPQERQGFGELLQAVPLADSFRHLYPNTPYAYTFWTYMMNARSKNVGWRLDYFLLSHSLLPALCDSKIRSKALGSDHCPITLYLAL
# Description: Double-stranded oligodeoxynucleotide containing tetrahydrofuran (THF) abasic site labeled with TAMRA at the 5′-end was used as the labeled binding probe. Inhibition of APE1 binding to labeled probe was detected by a decrease in the fluorescence polarization (FP) of the fluorophore. Briefly, 4 µL mixture of 20 nM APE1 and 5 nM probe contained in the enzymatic assay buffer from which Mg^2+ was omitted, was dispensed into 1536-well Greiner black solid bottom plates. Compounds (23 nL) were transferred via pintool, and after a 15-minute incubation at room temperature, fluorescence polarization was measured in a ViewLux High-throughput CCD imager (480 nm excitation and 540 nm emission) to determine the degree of probe displacement caused by the test compounds.
# [4] = target: T2, APE1; assay: Gel-based APE1 incision assay with fluorescence (TAMRA) detection; type: biochemical
# [5] = target: T2, APE1; assay: Fluorogenic kinetic qHTS APE1 incision assay (primary screen and retest of cherrypicked samples); type: biochemical;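 note: purified APE1 cleaving a fluorophore/dark-quencher labelled 17-mer duplex DNA bearing a tetrahydrofuran AP site, fluorescence rise followed kinetically over the first 2 min, inhibition normalized to controls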
# Description: All screening operations were performed on a fully integrated robotic system (Kalypsys, San Diego, CA) [28] with library plates screened proceeding from the lowest to the highest concentration to minimize compound carryover [26]. Vehicle-only plates, with DMSO being pin-transferred to the entire column 5–48 compound area, were included regularly throughout the screen in order to record any systematic shifts in assay signal. During the screen, reagent bottles were kept at 4°C and all liquid lines were covered with aluminum foil to minimize degradation.
# Screening data were corrected and normalized, and concentration–effect relationships was derived using in-house developed algorithms [25].
# To screen for inhibitors of APE1 incision activity, we employed a purified-enzyme biochemical assay with a model substrate featuring a red-shifted fluorescent reporter in combination with a dark non-emitting quencher. These moieties were incorporated as end labels onto a 17-mer double-stranded DNA fragment containing a centrally-located tetrahydrofuran AP site sugar mimetic, which serves as the APE1 cleavage site. Upon APE1-catalyzed strand scission immediately 5′ to the AP site analog, the shortened oligodeoxynucleotide carrying the fluorescent reporter spontaneously dissociates from the rest of the substrate, leading to an increase in fluorescence due to its spatial separation from the dark quencher (Figure 1A).
# Using a high-speed whole-plate fluorescence imager, the assay data for the entire screen was conducted in kinetic mode, with the APE1 incision reaction being monitored over the initial linear time frame of 2 min (Figure 1B). Thus, any inhibition associated with each sample was computed from the alteration in fluorescence intensity over the time-course measurement period, after normalization against the appropriate controls (Figure 1B, inset).
# [6] = target: double-stranded 17-mer DNA fragment; assay: ThO (Thiazole Orange) DNA displacement assay; type: binding; details: read-out: ThO-DNA binding IC50;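 note: miniaturized displacement of the intercalating dye from unlabeled duplex DNA, used to flag nonspecific DNA binders, chiefly intercalators, groove binders may be missed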
# [7] = target: T2, APE1; assay: Gel-based radiotracer (32P) APE1 incision assay; type: biochemical; set-up: concentration or dose not given beside the values; details: percent incision shown; entries 1-112;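 note: APE1 incision reactions ran 5 min at 37 °C, with cleaved product and intact substrate resolved electrophoretically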
# [8] = estimated IC50, fluorophore detection, entries 113-223, read-out: F-PAGE Assay IC50
# [9] = initial quantitative high-throughput screen, read-out: APE1 qHTS IC50
# [10] = retest of cherrypicked sample, read-out: APE1 Retest IC50
# [11] = entries 113-223: fluorophore detection, estimated IC50, read-out: Gel-based electrophoretic separation assay with fluorophore detection, estimated IC50 (column headed Radiotracer Assay (%Activity))
structure (smiles),measurement,setting,value
O=C(O)C1Nc2ccc(Br)cc2C2C=CCC12 (stereo not drawn) [MLS001209038],IC50,[1],> 57 µM
same,MMS Assay,[2],I
same,IC50,[3],> 57 µM
same,IC50,[4]; [8],6.3 µM
same,IC50,[5]; [9],13.4 µM
same,IC50,[5]; [10],18.2 µM
same,IC50,[6],25.7 µM
O=C(O)c1ccccc1-c1ccc(/C=c2\sc3nc4cc(Br)cnc4n3c2=O)o1 [MLS000107874],IC50,[1],> 57 µM
same,MMS Assay,[2],I
same,IC50,[3],17.8 µM
same,Radiotracer Assay (%Activity),[7],11%
same,IC50,[5]; [9],22.4 µM
same,IC50,[5]; [10],8.9 µM
same,IC50,[6],> 57 µM
O=C(O[C@@H]1OC2COC(=O)c3cc(O)c(O)c(O)c3-c3c(cc(O)c(O)c3O)C(=O)O[C@@H]([C@H]1O)[C@@H]2O)c1cc(O)c(O)c(O)c1 [MLS000563483],IC50,[1],> 57 µM
same,MMS Assay,[2],I
same,IC50,[3],> 57 µM
same,Radiotracer Assay (%Activity),[7],16%
same,IC50,[5]; [9],0.07 µM
same,IC50,[5]; [10],0.05 µM
same,IC50,[6],> 57 µM
CC(C)C(=O)NC(C)C(c1cccs1)N1CCN(c2ccccc2)CC1 (stereo not drawn) [MLS000092582],IC50,[1],> 57 µM
same,MMS Assay,[2],I
same,IC50,[6],> 57 µM
Cc1ccccc1CN1CCN(Cc2cc(=O)c3ccccc3[nH]2)CC1CCO (stereo not drawn) [MLS001000225],IC50,[1],> 57 µM
same,MMS Assay: potentiation of the genotoxic effect of methylmethane sulfonate,[2],I
same,IC50,[6],> 57 µM
COc1c(-c2ccc(O)cc2)oc2cc(O)cc(O)c2c1=O [MLS000877008],IC50,[1],> 57 µM
same,MMS Assay,[2],I
same,IC50,[3],> 57 µM
same,Radiotracer Assay (%Activity),[7],43%
same,IC50,[5]; [9],1.1 µM
same,IC50,[5]; [10],2.8 µM
same,IC50,[6],> 57 µM
O=C1CC(=O)N(Cc2ccco2)C(=S)N1 [MLS000535286],IC50,[1],> 57 µM
same,MMS Assay,[2],I
same,IC50,[3],> 57 µM
same,Radiotracer Assay (%Activity),[7],28%
same,IC50,[5]; [9],11.2 µM
same,IC50,[5]; [10],12.6 µM
same,IC50,[6],> 57 µM
COc1ccc(CCn2c(O)cc3nn(-c4nc5ccccc5s4)c(=O)c-3c2C)cc1 [MLS000763226],IC50,[1],> 57 µM
same,MMS Assay,[2],I
same,IC50,[3],> 57 µM
same,Radiotracer Assay (%Activity),[7],20%
same,IC50,[5]; [9],31.6 µM
same,IC50,[5]; [10],15.8 µM
same,IC50,[6],10 µM
O=C1COc2ccc(C(=O)COC(=O)/C=C/c3ccc(Br)o3)cc2N1 [MLS001142042],IC50,[1],> 57 µM
same,MMS Assay,[2],I
same,IC50,[3],> 57 µM
same,IC50,[4]; [8],2.2 µM
same,IC50,[5]; [9],4.7 µM
same,IC50,[5]; [10],14.5 µM
same,IC50,[6],> 57 µM
CC1CCc2c(sc(NC(=O)/C=C/c3cccs3)c2C(=O)O)C1 (stereo not drawn) [MLS000974674],IC50,[1],> 57 µM
same,MMS Assay,[2],P
same,IC50,[3],> 57 µM
same,IC50,[4]; [8],6.3 µM
same,IC50,[5]; [9],11.9 µM
same,IC50,[5]; [10],45.7 µM
same,IC50,[6],36.3 µM
CCc1cc(CNC(=O)c2ccc(OC3CCN(CCc4ccccc4)CC3)cc2)on1 [MLS001105846],IC50,[1],> 57 µM
same,MMS Assay,[2],P
same,IC50,[3],32.4 µM
same,IC50,[4]; [8],4.5 µM
same,IC50,[5]; [9],11.9 µM
same,IC50,[5]; [10],6.5 µM
same,IC50,[6],> 57 µM
CC(=O)Nc1sc2c(c1-c1nc3ccccc3s1)CCN(C(C)C)C2 [MLS000419194],MMS Assay,[2],P
same,IC50,[3],2.5 µM
same,Radiotracer Assay (%Activity),[7],2%
same,IC50,[5]; [9],14.1 µM
same,IC50,[5]; [10],3.9 µM
same,IC50,[6],> 57 µM
Cn1cccc1/C=C1\C(=O)NC(=O)N(Cc2ccco2)C1=O [MLS000677191],IC50,[1],> 57 µM
same,MMS Assay,[2],I
same,IC50,[3],> 57 µM
same,Radiotracer Assay (%Activity),[7],5%
same,IC50,[5]; [9],14.1 µM
same,IC50,[5]; [10],4.5 µM
same,IC50,[6],> 57 µM
O=C1/C(=C/C=C/c2ccco2)SC(=S)N1NS(=O)(=O)c1ccccc1 [MLS000778639],IC50,[1],> 57 µM
same,MMS Assay,[2],I
same,IC50,[3],> 57 µM
same,Radiotracer Assay (%Activity),[7],6%
same,IC50,[5]; [9],2.5 µM
same,IC50,[5]; [10],3.5 µM
same,IC50,[6],> 57 µM
CC(C(=O)O)N1C(=O)/C(=C/C=C/c2ccco2)SC1=S (stereo not drawn) [MLS000551724],IC50,[1],> 57 µM
same,MMS Assay,[2],I
same,IC50,[3],12.6 µM
same,Radiotracer Assay (%Activity),[7],9%
same,IC50,[5]; [9],2.8 µM
same,IC50,[5]; [10],0.9 µM
same,IC50,[6],> 57 µM
COc1ccc2c(c1)c(=O)oc1cc(OCC(=O)N3CCC(C)CC3)ccc12 [MLS000088142],IC50,[1],> 57 µM
same,MMS Assay,[2],I
same,IC50,[3],14.1 µM
same,Radiotracer Assay (%Activity),[7],29%
same,IC50,[5]; [9],15.6 µM
same,IC50,[5]; [10],5 µM
same,IC50,[6],> 57 µM
O=C(COC(=O)/C=C/c1ccco1)Nc1ncc(Cl)cc1Cl [MLS000391557],IC50,[1],> 57 µM
same,MMS Assay,[2],I
same,IC50,[6],> 57 µM
COc1ccc(CN2C(=O)NC(=O)/C(=C\c3ccco3)C2=O)cc1 [MLS000723827],IC50,[1],> 57 µM
same,MMS Assay,[2],I
same,IC50,[3],> 57 µM
same,Radiotracer Assay (%Activity),[7],18%
same,IC50,[5]; [9],22.4 µM
same,IC50,[5]; [10],14.1 µM
same,IC50,[6],> 57 µM
Cc1cccn2c(=O)c3cc(C(=O)NCc4ccco4)c(=N)n(C4CCCCC4)c3nc12 [MLS001217741],IC50,[1],> 57 µM
same,MMS Assay: potentiation of the genotoxic effect of methylmethane sulfonate,[2],P
same,IC50,[3],> 57 µM
same,IC50,[4]; [11],22.4 µM
same,IC50,[5]; [9],16.8 µM
same,IC50,[5]; [10],12.9 µM
same,IC50,[6],> 57 µM
O=C(O)c1cccc(-n2cccc2/C=C/[N+](=O)[O-])c1 [MLS000778420],IC50,[1],> 57 µM
same,MMS Assay,[2],P
same,IC50,[3],> 57 µM
same,Radiotracer Assay (%Activity),[7],46%
same,IC50,[5]; [9],3.9 µM
same,IC50,[5]; [10],4.5 µM
same,IC50,[6],> 57 µM
N#C/C(=C\c1ccc(O)c(O)c1)C(=O)Nc1cccc2ncccc12 [MLS001173932],IC50,[1],> 57 µM
same,MMS Assay,[2],I
same,IC50,[3],> 57 µM
same,IC50,[4]; [8],0.6 µM
same,IC50,[5]; [9],3 µM
same,IC50,[5]; [10],5.1 µM
same,IC50,[6],2 µM
COc1ccc(C(=O)Nc2ccnn2C2CCN(Cc3ccc4nonc4c3)CC2)cc1 [MLS001090278],IC50,[1],> 57 µM
same,MMS Assay: potentiation of the genotoxic effect of methylmethane sulfonate,[2],I
same,IC50,[3],> 57 µM
same,IC50,[4]; [11],10 µM
same,IC50,[5]; [9],5.3 µM
same,IC50,[5]; [10],10.2 µM
same,IC50,[6],> 57 µM
